Measurements taken from publication PMC11277145, “Wrinkle-Improving Effect of Novel Peptide That Binds to Nicotinic Acetylcholine Receptor” (International Journal of Molecular Sciences, 2024).
Where no end group is shown, it is not given here.

What was measured:
[1] = tested on: human cornea model (MCTT HCE^TM); test: Eye irritation test, human cornea model (MCTT HCE); type: cell-based; settings: for Cell survival (%Control): 10 min exposure, 18 h post-culture, WST-1; for Average absorption: mean of N1 and N2; for Absorption (N1): replicate N1, WST-1, 450 nm; for Absorption (N2): replicate N2, WST-1, 450 nm
Description: To evaluate the eye irritation potential of the peptide, an in vitro experimental model recognized by the OECD as an alternative animal evaluation method, the human cornea model (MCTT HCE^TM), was used. The experiment was conducted according to the standard experimental method provided by the manufacturer, Biosolution (Seoul, Republic of Korea). First, before the experiment, the color interference of the test material was checked, and to begin the experiment, MCTT HCE^TM was incubated for 22 h at 5% CO2 and 37 °C. Next, 40 μL of the peptide was applied to the top of the MCTT HCE^TM and left to react for 10 min. Afterwards, the peptide was removed using DPBS, and MCTT HCE^TM was transferred to a new medium and cultured for 18 h at 5% CO2 and 37 °C. After the culture was completed, 200 μL/well of WST-1 solution diluted at a ratio of 1:25 was added to a new plate, MCTT HCE^TM was transferred thereon, and 100 μL of WST-1 solution was treated inside.

human skin = test: Human skin irritation patch test; type: in vivo
Description: The skin irritation test was conducted at CRA Korea Co., Ltd. in the Republic of Korea, with the approval serial number CRA21-HIPTRP1001. The patch used was the IQ Ultra Chamber (Chemotechnique Diagnostics, Vellinge, Sweden). The human skin primary irritation test was completed, with all 31 subjects participating until the end of the study. The test area for the product was the back (excluding the spinal area). The patch was applied for 24 h and then removed. The first evaluation was conducted 30 min after patch removal while waiting for the transient erythema to disappear due to removal, and the second evaluation was conducted 24 h after patch removal. The irritation criterion used a measurement evaluation method designed by Frosch and Kligman by applying the reading standards of the International Contact Dermatitis Research Group (ICDRG).

dermal fibroblasts = test: In vitro cell viability (MTT) assay; type: cell-based, human; settings: 24 h
Description: (§1) TE671 rhabdomyosarcoma cell line was purchased from Korea Cell Line Bank (Seoul, Republic of Korea). Dermal fibroblasts (Hs68) were purchased from American Type Culture Collection. Cells were cultured in Dulbecco’s Modified Eagle’s medium (DMEM) and medium containing 10% fetal bovine serum (FBS), 1% penicillin-streptomycin at 37 °C, and up to 5% CO2. Human skin keratinocytes (HEKn) were purchased from Thermo Fisher Scientific (Waltham, MA, USA) and cultured using keratinocyte growth medium, keratinocyte-SFM supplemented with epidermal growth factor (EGF) and bovine pituitary extract (BPE) at 37 °C, and up to 5% CO2.
The in vitro cytotoxicity of the novel peptide on cells was assessed using the MTT [(3-(4,5-dimethylthiazol-2-yl)-2,5-diphenyltetrazolium bromide] cell viability assay. Briefly, dermal fibroblasts were cultured in 24-well plates at a density of 1 × 10^5 cells/well for 18 h. After the medium was removed, the sample diluted in FBS-free medium was added and cultured for 24 h. Then, after the medium was removed, MTT solution was added at a concentration of […] and left to react for 3 h. Unreacted MTT was removed, 100 μL of DMSO was added to dissolve the formed reaction product, and the absorbance at 540 nm was measured and evaluated using an ELISA reader.

nAChR subunit α1 = molecular target: T1, nAChR subunit α1 (Homo sapiens, UniProt P02708); test: SPR binding affinity to immobilized nAChR subunit α1
T1 construct: purchased MyBioSource MBS963713
T1 sequence (P02708 21-457): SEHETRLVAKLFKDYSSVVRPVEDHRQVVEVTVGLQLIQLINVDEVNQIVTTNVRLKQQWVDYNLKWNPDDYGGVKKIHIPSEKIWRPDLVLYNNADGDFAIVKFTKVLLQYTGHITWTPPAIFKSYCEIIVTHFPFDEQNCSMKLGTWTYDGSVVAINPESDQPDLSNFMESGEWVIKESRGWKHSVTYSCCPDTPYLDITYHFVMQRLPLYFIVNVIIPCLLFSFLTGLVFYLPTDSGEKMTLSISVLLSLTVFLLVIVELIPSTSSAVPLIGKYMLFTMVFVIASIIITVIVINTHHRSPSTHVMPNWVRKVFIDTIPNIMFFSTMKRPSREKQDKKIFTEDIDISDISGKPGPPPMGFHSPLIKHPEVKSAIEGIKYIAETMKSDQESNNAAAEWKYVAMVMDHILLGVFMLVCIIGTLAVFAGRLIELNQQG
Text: The ligand used recombinant human acetylcholine receptor subunit α1, Cat. No. MBS963713 (MyBioSource, San Diego, CA, USA), and SYN®-AKE used dipeptide diaminobutyroyl benzylamide (Cayman Chemical, Ann Arbor, MI, USA). All peptides used in this study were synthesized and supplied by Anygen (Gwangju, Republic of Korea). Phosphate-buffered saline (PBS), Tween 20, polyethylene glycol (weight-averaged molecular weight (MW) = 8000), LB agar, and bovine serum albumin (BSA) were purchased from Sigma-Aldrich (St. Louis, MO, USA). All reagents and cell culture media were purchased from WELGENE (Gyeongsan-si, Republic of Korea). The INCI name for the novel peptide is Palmitoyl Hexapeptide-93. It was synthesized by Incospharm (Daejeon, Republic of Korea), and clinical trials were conducted with a content of 500 ppm (w/v).
The SPR analysis was performed using a BIACORE 3000 (GE healthcare, Chicago, IL, USA). The nAChR subunit α1 was immobilized on a CM5 sensor chip by injecting the protein diluted in PBS (0.2 M phosphate buffer, 0.027 M KCl, 1.37 M NaCl, pH 7.4) at a concentration of 0.35 mg/mL at a flow rate of 5 μL min^−1. After, 5 μM peptide was injected into running buffer (20 mM Tris, pH 7) and its interaction with nAChR subunit α1 was measured at a flow rate of 30 μL min^−1. For kinetic experiments, peptides diluted in running buffer at concentrations ranging from […] to 200, 400, 600, 1000, and 1200 nM were injected at a flow rate of 30 μL min^−1 over the immobilized nAChR subunit α1. The association and dissociation kinetic rate constants (ka and kd) and the equilibrium […], KD, were calculated using BIAevaluation 3.1 software.

nAChRs = settings: ref [16]; read-out: IC50 (binds to nAChRs and inhibits the action of ACh); cited from earlier work
Text: Muscle contraction is induced by acetylcholine (ACh), a neurotransmitter released from nerve cells. ACh is released into the space between muscles and nerves when synaptic vesicles fuse with the cell membrane through the action of the SNARE (Soluble N-ethylmaleimide-sensitive factor attachment protein receptor) complex within nerve cells. Released ACh binds to nAChR or muscarinic acetylcholine receptor (mAChR) on the muscle cell surface to induce muscle contraction. Facial wrinkles are formed by muscle contraction through the binding of muscle nAChRs (subtypes α1, β1, δ, γ, and ...

[2] = tested on: muscle nAChR (TE671 cells expressing nAChRs); test: In vitro intracellular nicotine response assay; type: cell-based, human; settings: 400 μM nicotine; for nicotine response: Fura-2-AM 340/380 nm, positive control, mean of three repeated measurements
Description: as §1
TE671 cells were cultured in DMEM and medium containing 10% FBS, 1% penicillin-streptomycin at 37 °C, and up to 5% CO2. An 18 mm coverslip was placed on a 12-well cell culture plate, cultured cells were removed with trypsin, and 1 mL was dispensed into each well to make 2 × 10^4 cells/well, followed by culturing for 4 days. The coverslip with the cultured cells was transferred to a new 12-well plate, mixed with 997 μL of HBSS buffer and 3 μL of Fura-2-AM (Invitrogen, Waltham, MA, USA), and incubated for 15 min. After incubation, the remaining Fura-2-AM was removed by washing three times with HBSS buffer, and 1 mL of HBSS buffer was additionally dispensed. After mounting the coverslip in the chamber (Live Cell Instrument, Namyangju-si, Republic of Korea), 500 μL of HBSS buffer was dispensed, and the peptide and nicotine samples to be tested were adjusted according to the concentration. Then, 10 to 20 cells were selected and captured alternately at 340 nm and 380 nm wavelengths at 500 ms intervals through a fluorescence microscope (DMI3000 B, Leica Microsystems, Wetzlar, Germany). The fluorescence ratio at 340/380 nm was calculated using the LAS X program.

[3] = methyl acetate (no concentration)
[4] = 0.1ppm, 30 min after patch removal, 31 subjects
[5] = 0.1ppm, 24 hours after patch removal, 31 subjects
[6] = 1ppm, 30 min after patch removal, 31 subjects
[7] = 1ppm, 24 hours after patch removal, 31 subjects
[8] = 10ppm, 30 min after patch removal, 31 subjects
[9] = 10ppm, 24 hours after patch removal, 31 subjects
[10] = 100ppm, 30 min after patch removal, 31 subjects
[11] = 100ppm, 24 hours after patch removal, 31 subjects

COC(C)=O [Methyl acetate, reference compound]
Average absorption, second value [1, 3]: 0.066 | eye irritation judgement (Standard) [1, 3]: Irritant | Cell survival (%Control) [1, 3]: 4.70% | Average absorption [1, 3]: 0.12 | Absorption (N1) [1, 3]: 0.102 | Absorption (N2) [1, 3]: 0.138

RRGVRR [Peptide 289]
skin irritation judgement (human skin; 0.1ppm): No irritation | skin reactivity score (human skin; 0.1 ppm to 100 ppm, 24 h patch, back, 31 subjects): 0.0 ± 0.00 | skin irritation (human skin; 0.1 ppm to 100 ppm, Frosch and Kligman and COLIPA criteria, 31 subjects): non-irritation | Average response (%) (human skin; 0.1ppm, 31 subjects): 0.0±0.00% | subjects with 1+ reaction (human skin; [4]): 0 | subjects with 2+ reaction (human skin; [4]): 0 | subjects with 3+ reaction (human skin; [4]): 0 | subjects with ± reaction (human skin; [4]): 0 | subjects with 1+ reaction (human skin; [5]): 0 | subjects with 2+ reaction (human skin; [5]): 0 | subjects with 3+ reaction (human skin; [5]): 0 | subjects with ± reaction (human skin; [5]): 0 | skin irritation judgement (human skin; 1ppm): No irritation | Average response (%) (human skin; 1ppm, 31 subjects): 0.0±0.00% | subjects with 1+ reaction (human skin; [6]): 0 | subjects with 2+ reaction (human skin; [6]): 0 | subjects with 3+ reaction (human skin; [6]): 0 | subjects with ± reaction (human skin; [6]): 0 | subjects with 1+ reaction (human skin; [7]): 0 | subjects with 2+ reaction (human skin; [7]): 0 | subjects with 3+ reaction (human skin; [7]): 0 | subjects with ± reaction (human skin; [7]): 0 | skin irritation judgement (human skin; 10ppm): No irritation | Average response (%) (human skin; 10ppm, 31 subjects): 0.0±0.00% | subjects with 1+ reaction (human skin; [8]): 0 | subjects with 2+ reaction (human skin; [8]): 0 | subjects with 3+ reaction (human skin; [8]): 0 | subjects with ± reaction (human skin; [8]): 0 | subjects with 1+ reaction (human skin; [9]): 0 | subjects with 2+ reaction (human skin; [9]): 0 | subjects with 3+ reaction (human skin; [9]): 0 | subjects with ± reaction (human skin; [9]): 0 | skin irritation judgement (human skin; 100ppm): No irritation | Average response (%) (human skin; 100ppm, 31 subjects): 0.0±0.00% | subjects with 1+ reaction (human skin; [10]): 0 | subjects with 2+ reaction (human skin; [10]): 0 | subjects with 3+ reaction (human skin; [10]): 0 | subjects with ± reaction (human skin; [10]): 0 | subjects with 1+ reaction (human skin; [11]): 0 | subjects with 2+ reaction (human skin; [11]): 0 | subjects with 3+ reaction (human skin; [11]): 0 | subjects with ± reaction (human skin; [11]): 0 | cytotoxicity (dermal fibroblasts; 0.1 ppm to 100 ppm, dermal fibroblasts, 540 nm): no toxicity | cytotoxicity (dermal fibroblasts; up to 100 μg/mL, fibroblasts): non-cytotoxic | kon (nAChR subunit α1; SPR, 200-1200 nM, 20 mM Tris pH 7, 30 μL/min, read-out: ka): 14900 M⁻¹ s⁻¹ | Kd (nAChR subunit α1; binding affinity to nAChR subunit α1, bound given in abstract, SPR): < 1000 nM | Kd (nAChR subunit α1; equilibrium dissociation constant (KD), SPR, 200-1200 nM, 20 mM Tris pH 7, BIAevaluation 3.1): 609 nM | koff (nAChR subunit α1; pH 7, read-out: dissociation rate constant (kd)): 0.00906 s⁻¹ | Average absorption, second value ([1]; 0.1ppm): 1.469 | eye irritation ([1]; 0.1 ppm to 100 ppm, MCTT HCE): non-irritating | Cell survival (%Control) ([1]; 0.1ppm): 105.30% | Average absorption ([1]; 0.1ppm): 1.523 | Absorption (N1) ([1]; 0.1ppm): 1.461 | Absorption (N2) ([1]; 0.1ppm): 1.585 | Average absorption, second value ([1]; 1ppm): 1.553 | Cell survival (%Control) ([1]; 1ppm): 111.30% | Average absorption ([1]; 1ppm): 1.607 | Absorption (N1) ([1]; 1ppm): 1.558 | Absorption (N2) ([1]; 1ppm): 1.656 | Average absorption, second value ([1]; 10ppm): 1.47 | Cell survival (%Control) ([1]; 10ppm): 105.30% | Average absorption ([1]; 10ppm): 1.524 | Absorption (N1) ([1]; 10ppm): 1.464 | Absorption (N2) ([1]; 10ppm): 1.583 | Average absorption, second value ([1]; 100ppm): 1.456 | Cell survival (%Control) ([1]; 100ppm): 104.30% | Average absorption ([1]; 100ppm): 1.51 | Absorption (N1) ([1]; 100ppm): 1.563 | Absorption (N2) ([1]; 100ppm): 1.456

dipeptide diaminobutyroyl benzylamide [SYN®-AKE]
IC50 (nAChRs): 180000 nM | nicotine response ([2]; 100 μM): 98% | nicotine response ([2]; 250 μM): 52.5% | concentration required to inhibit the nicotinic response [2]: 500 µM | nicotine response ([2]; 500 μM): 3.5%
